From patent US5858736A, “Preparation of lactams from aliphatic α,ω-dinitriles” (priority 1996, dated 1999)
Converted amounts (≈) assume the structure as drawn.

Key:
[1] = pKa of acid and protonated amine groups / ionization at reaction pH; format: physicochemical; details: calculated, reaction mixture pH of between 9 and 10
[2] = cited from earlier work
[3] = physchem; details: 20 mm phosphate buffer, pH 7, aqueous buffer
[4] = Solubility of dinitrile in the aqueous cell suspension; format: physicochemical; details: aqueous cell suspension of Acidovorax facilis 72W, two-phase above this concentration; read-out: concentration above which the solubility of the dinitrile was exceeded
Protocol: Into a 500 mL erlenmeyer flask equipped with magnetic stir bar was placed 50.0 g of frozen Acidovorax facilis 72W (ATCC 55746) cells (previously heat-treated at 50° C. for 1 h before freezing) and 450 mL of potassium phosphate buffer (20 mM, pH 7.0) at 27° C. With stirring, the cells were thawed and suspended, then centrifuged and the supernatant discarded. The cell pellet was resuspended in a total volume of 863 mL of potassium phosphate buffer (20 mM, pH 7.0) in a 1.0 L flask, then 133 g (137.0 mL, 1.25 mole) of 2-methyleneglutaronitrile was added with stirring at 27° C. […] Samples (0.100 mL) were withdrawn, diluted 1:10 with water and centrifuged, then 0.150 mL of the supernatant was placed in a Millipore Ultrafree-MC filter unit (0.22 micron) and mixed with 0.150 mL of an aqueous solution of 0.150M N-methylpropionamide (HPLC external standard solution). The resulting solution was filtered and analyzed by HPLC.

[5] = Lange's Handbook of Chemistry, 14th edn.

N.NCCCCCC(=O)O [6-aminocaproic acid ammonium salt]
fraction of amine groups protonated [1]: approximately half

NCCCCCC(=O)O [6-aminocaproic acid]
pKa of the carboxylic acid group [2, 5]: 4.373 | pKa of the protonated amine group [2, 5]: 10.804 | fraction existing in solution as the ammonium salt of the carboxylic acid [1]: at least 99.997%

CN [methylamine]
pKa for the protonated amine (methylamine) ([2]; in water): 10.62

N#CCCCCC#N [adiponitrile]
solubility [3]: ~600 mM (≈ 64.9 mg/mL)

C=C(C#N)CCC#N [2-methyleneglutaronitrile]
solubility [4]: ≤ 400 mM
